According to paper PMC7839768 (Chemistry (Weinheim an Der Bergstrasse, Germany), 2020):

How the values were obtained:
hGal-3 = hGal-3 (Homo sapiens, UniProt P17931); assay: ITC; format: binding
hGal-1 = hGal-1 (Homo sapiens, UniProt P09382); assay: ITC; format: binding
hGal-1, sequence (P09382 2-135): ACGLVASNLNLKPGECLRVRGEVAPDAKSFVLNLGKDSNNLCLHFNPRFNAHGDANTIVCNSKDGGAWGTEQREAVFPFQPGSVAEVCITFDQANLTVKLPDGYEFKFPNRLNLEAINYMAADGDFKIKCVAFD

hGal-3, sequence (P17931 2-250): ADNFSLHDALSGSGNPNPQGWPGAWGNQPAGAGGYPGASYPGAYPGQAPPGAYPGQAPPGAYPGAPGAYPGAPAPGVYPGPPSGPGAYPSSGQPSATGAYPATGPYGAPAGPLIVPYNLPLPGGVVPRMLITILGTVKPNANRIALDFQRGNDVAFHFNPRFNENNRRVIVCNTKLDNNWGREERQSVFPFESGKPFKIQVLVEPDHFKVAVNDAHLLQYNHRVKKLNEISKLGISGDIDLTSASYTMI

Row | SMILES | Kd (hGal-3) | Kd (hGal-1)
1 | OC[C@H]1O[C@@H]([Se][Se][C@@H]2O[C@H](CO)[C@H](O)[C@H](O)[C@H]2O)[C@H](O)[C@@H](O)[C@H]1O [DSeDG] | 2800 ± 180 µM | 
2 | OC[C@H]1O[C@@H]([Se][C@@H]2O[C@H](CO)[C@H](O)[C@H](O)[C@H]2O)[C@H](O)[C@@H](O)[C@H]1O [SeDG] | 93.1 ± 2.6 µM | 108 ± 1.4 µM
3 | CC(=O)N[C@H]1[C@H](O[C@H]2[C@@H](O)[C@@H](CO)O[C@@H](O[C@H]3[C@H](O)[C@@H](NC(C)=O)[C@H](OCCN=[N+]=[N-])O[C@@H]3CO)[C@@H]2O)O[C@H](CO)[C@@H](O[C@@H]2O[C@H](CO)[C@H](O)[C@H](O)[C@H]2O)[C@@H]1O [compound 1, 2‐Azidoethyl (β‐D‐galactopyranosyl)‐(1→4)‐(2‐acetamido‐2‐deoxy‐β‐D‐glucopyranosyl)‐(1→3)‐(β‐D‐galactopyranosyl)‐(1→4)‐2‐acetamido‐2‐deoxy‐β‐D‐glucopyranoside] | 5.6 ± 0.1 µM | 94.7 ± 2.2 µM
4 | CC(=O)N[C@H]1[C@H](O[C@H]2[C@@H](O)[C@@H](CO)O[C@@H](O[C@H]3[C@H](O)[C@@H](O)[C@H](OCCCN)O[C@@H]3CO)[C@@H]2O)O[C@H](CO)[C@@H](O)[C@@H]1O[C@@H]1O[C@H](CO)[C@H](O)[C@H](O)[C@H]1O [compound 2, 3‐Aminopropyl (β‐D‐galactopyranosyl)‐(1→3)‐(2‐acetamido‐2‐deoxy‐β‐D‐glucopyranosyl)‐(1→3)‐(β‐D‐galactopyranosyl)‐(1→4)‐β‐D‐glucopyranoside] | 28.1 ± 0.5 µM | 175 ± 3.2 µM
